# Measurements as given in patent EP0036502B1, “2-Alkyl-5-hydroxy-1,4-naphthoquinones, process for their manufacture and pharmaceutical preparations containing these compounds” (ZYMA GMBH, priority 1980, dated 1981).
# Test system: Prostaglandinsynthetase
# Experiment: Prostaglandin synthetase inhibition in vitro (method of Baumann et al.)
# Format: biochemical
# Conditions: concentration 10-^3 Mol/I, 1000 µM
# Excerpt: Die Erfindung betrifft somit weiterhin die Verwendung der erfindungsgemäßen Verbindungen der allgemeinen Formel I zur Behandlung und Bekämpfung von Entzündungen sowie von allergischen, insbesondere anaphylaktischen Reaktionen. So beträgt beispieslweise die durch 2-Äthyl-5-hydroxy-1,4-naphthochinon hervorgerufene Prostaglandinsynthetase-Hemmung in vitro bei einer Konzentration von 10-^3 Mol/I 87%. Die Bestimmung der Prostaglandinsynthetase-Hemmung wurde nach J. Baumann, F. v. Bruchhausen u. G. Wurm, Naunym-Schmiedeberg's Arch. Pharmacol. 307, 73 (1979) und j. Baumann, G. Wurm u. F. v. Bruchhausen, Arch. Pharm. (Weinheim) 313,330 (1980) durchgeführt.
smiles,measurement,value
"CCC1=CC(=O)c2c(O)cccc2C1=O [2-Äthyl-5-hydroxy-1,4-naphthochinon]",Prostaglandinsynthetase-Hemmung in vitro,87%
